Assay results published in ChEMBL document CHEMBL1141983, “QSAR of estrogen receptor modulators: exploring selectivity requirements for ER(alpha) versus ER(beta) binding of tetrahydroisoquinoline derivatives using E-state and physicochemical parameters” (Bioorg Med Chem Lett, 2005).

What was measured:
Estrogen receptor [1] = molecular target: T1, Estrogen receptor (Homo sapiens, UniProt P03372)
T1 sequence (P03372 whole entry): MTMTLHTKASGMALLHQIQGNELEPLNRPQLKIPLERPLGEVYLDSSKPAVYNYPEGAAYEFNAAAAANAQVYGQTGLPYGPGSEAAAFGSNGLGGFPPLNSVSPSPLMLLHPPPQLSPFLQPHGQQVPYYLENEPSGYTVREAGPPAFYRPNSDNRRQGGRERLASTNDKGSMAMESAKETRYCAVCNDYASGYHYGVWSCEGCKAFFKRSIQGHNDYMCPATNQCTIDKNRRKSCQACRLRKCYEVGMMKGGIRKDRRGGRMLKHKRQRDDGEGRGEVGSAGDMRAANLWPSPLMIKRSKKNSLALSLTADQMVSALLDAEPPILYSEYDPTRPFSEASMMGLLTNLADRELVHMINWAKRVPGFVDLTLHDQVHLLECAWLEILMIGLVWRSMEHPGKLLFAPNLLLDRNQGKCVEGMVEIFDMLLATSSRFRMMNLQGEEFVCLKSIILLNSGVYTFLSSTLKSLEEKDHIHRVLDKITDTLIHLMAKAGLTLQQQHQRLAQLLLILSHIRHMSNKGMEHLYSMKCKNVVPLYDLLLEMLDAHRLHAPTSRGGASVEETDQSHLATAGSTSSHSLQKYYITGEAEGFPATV
Description: (§1) Inhibition of transcriptional activation by human estrogen receptor alpha

Estrogen receptor [2] = molecular target: T1, Estrogen receptor; remark: listed apart in the source
Description: Inhibition of binding to human estrogen receptor alpha

Estrogen receptor beta [3] = molecular target: T2, Estrogen receptor beta (Homo sapiens, UniProt Q92731); assay: Inhibition of binding to human estrogen receptor beta
Estrogen receptor [4] = molecular target: T1, Estrogen receptor; remark: listed apart in the source
Description: as §1

Estrogen receptor beta [5] = molecular target: T2, Estrogen receptor beta; assay: Inhibition of transcriptional activation by human estrogen receptor beta

T2 sequence (Q92731 whole entry): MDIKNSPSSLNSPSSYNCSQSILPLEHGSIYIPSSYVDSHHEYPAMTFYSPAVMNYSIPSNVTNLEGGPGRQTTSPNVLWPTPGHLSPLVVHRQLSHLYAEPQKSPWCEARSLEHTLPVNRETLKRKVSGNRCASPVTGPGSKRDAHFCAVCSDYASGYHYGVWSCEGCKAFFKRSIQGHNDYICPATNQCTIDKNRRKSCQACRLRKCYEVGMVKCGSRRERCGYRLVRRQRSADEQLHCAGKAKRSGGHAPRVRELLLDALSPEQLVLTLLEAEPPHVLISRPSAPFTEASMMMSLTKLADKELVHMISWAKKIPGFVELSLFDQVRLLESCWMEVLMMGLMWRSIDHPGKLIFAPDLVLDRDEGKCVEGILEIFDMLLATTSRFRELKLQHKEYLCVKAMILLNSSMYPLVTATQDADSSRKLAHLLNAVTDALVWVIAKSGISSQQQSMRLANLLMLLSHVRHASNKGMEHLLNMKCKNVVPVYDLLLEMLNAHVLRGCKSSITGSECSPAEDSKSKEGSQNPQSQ

SMILES | pIC50(uM) (Estrogen receptor [1]) | further results
CC(C)c1ccc(N2CCc3cc(O)ccc3C2(C)c2ccc(OCCN3CCCCC3)cc2)cc1 (stereo not given) | 2.284 | –
CC1(c2ccc(OCCN3CCCCC3)cc2)c2ccc(O)cc2CCN1c1cccc(O)c1 (stereo not given) | 3.155 | –
CC1(c2ccc(OCCN3CCCCCC3)cc2)c2ccc(O)cc2CCN1c1ccccc1 (stereo not given) | 2.824 | –
CN(C)c1cccc(N2CCc3cc(O)ccc3C2c2ccc(OCCN3CCCCC3)cc2)c1 (stereo not given) | – | IC50 (Estrogen receptor [2]): 71 nM; IC50 (Estrogen receptor beta [3]): 3110 nM; IC50 (Estrogen receptor [4]): 19.8 nM; IC50 (Estrogen receptor beta [5]): 2180 nM
CC(C)c1ccc(N2CCc3cc(O)ccc3C2(C)c2ccc(OCCN3CCCC3)cc2)cc1 (stereo not given) | 2.585 | –

Further lines, with some results ahead:

pIC50(uM) (Estrogen receptor [1]) | SMILES | further results
2.585 | CC1(c2ccc(OCCN3CCCCC3)cc2)c2ccc(O)cc2CCN1c1ccccc1 (stereo not given) | –
2.796 | CC1(c2ccc(OCCN3CCCC3)cc2)c2ccc(O)cc2CCN1c1ccc(F)cc1 (stereo not given) | –
2.509 | CC1(c2ccc(OCCN3CCCCC3)cc2)c2ccc(O)cc2CCN1c1ccc(Cl)cc1 (stereo not given) | –
2.347 | CC1(c2ccc(OCCN3CCCCC3)cc2)c2ccc(O)cc2CCN1c1cccc(Cl)c1 (stereo not given) | –
2.523 | CC1(c2ccc(OCCN3CCCC3)cc2)c2ccc(O)cc2CCN1c1cccc(F)c1 (stereo not given) | –
2.538 | CC1(c2ccc(OCCN3CCCC3)cc2)c2ccc(O)cc2CCN1c1cccc(Cl)c1 (stereo not given) | –
2.745 | CC1(c2ccc(OCCN3CCCC3)cc2)c2ccc(O)cc2CCN1c1ccccc1 (stereo not given) | –
